Entries after “also recorded” stand apart in the source; their conditions may differ.
Experiments:
[1] = tested on: GLP-1 mRNA expression; test: GLP-1 mRNA expression in NCI-H716 cells by qRT-PCR; format: cell-based; conditions: delphinidin 10, 50 or 100 μM tested, increase at 50 and 100 μM, 24 h
Experimental: Total RNA was isolated from […] cells using the RNeasy Plus Mini Kit according to the manufacturer's instructions. Approximately 1 μg of total RNA, 0.5 μg of oligo (dT)18 primer, 10 mM dNTPs and 200 U of reverse transcriptase were used for each cDNA synthesis reaction. PCR amplifications were performed using the Brilliant II SYBR Green QPCR Master Mix (Stratagene) according to the manufacturer's instructions. All reactions were carried out using an Mx300p thermal cycler (Stratagene, Calif., USA). GLP-1 specific primers were used.

[2] = biological target: T1, GPR40 receptor (Homo sapiens, UniProt O14842); test: Measurement of calcium influx in Fura-2/AM-loaded HT-29 cells; format: cell-based; conditions: 100 μM
T1 construct: To assess and ensure the participation of GPR40 on calcium mobilization induced by delphinidin and cyanidin, Fura-2/AM-loaded HT-29 cells; endogenous in cells; host or cells: HT-29 cells
Experimental: HT-29 cells were suspended in HBSS at a concentration of 20×10^6 cells/ml and incubated with 1 μM Fura-2/AM (Molecular Probes) for 30 min at 37° C. The cells were then washed twice, divided into 2×10^6 cells/ml aliquots and maintained at 4° C. in the dark until use. Cells were then pelleted by centrifugation at 1200 rpm for 6 min and re-suspended in 2 ml HEPES buffer [20 mM HEPES, pH 7.2; 140 mM NaCl; 10 mM glucose; 1 mM KCl; 1 mM Ca^2+ chloride (CaCl2); and 1 mM MgCl2].
The influx of Ca^2+ was recorded as the 340:380 excitation ratio at 509 nm emission in a LS55 thermoregulated spectrofluorimeter (Perkin-Elmer, Mass., USA).

[3] = tested on: GLP-1 production; test: GLP-1 production in NCI-H716 cells by flow cytometry; format: cell-based; conditions: 50 μM delphinidin, 48 hrs, Brefeldin A
Experimental: After two washes in PBS, the cells were stained with mouse anti-GLP-1 antibody for 1 hr at 4° C. The cells were washed twice with PBS, incubated for 1 hr at 4° C. with anti-mouse Alexa 488 (1:200 dilution) and finally washed twice with PBS. The cells were assessed by flow cytometry on a FACSCanto II (Becton Dickinson).

[4] = biological target: T2, SGLT-1 (Mus musculus, UniProt Q8C3K6); test: Ussing chamber: sodium-coupled D-glucose transport in mouse jejunum (short circuit current); conditions: 50 μM delphinidin on mucosal side
T2 construct: Two sections of jejunum per animal were mounted in Ussing Chambers; from tissue; host or cells: jejunum of C57Bl/6J mice
T2 sequence (Q8C3K6 1-665): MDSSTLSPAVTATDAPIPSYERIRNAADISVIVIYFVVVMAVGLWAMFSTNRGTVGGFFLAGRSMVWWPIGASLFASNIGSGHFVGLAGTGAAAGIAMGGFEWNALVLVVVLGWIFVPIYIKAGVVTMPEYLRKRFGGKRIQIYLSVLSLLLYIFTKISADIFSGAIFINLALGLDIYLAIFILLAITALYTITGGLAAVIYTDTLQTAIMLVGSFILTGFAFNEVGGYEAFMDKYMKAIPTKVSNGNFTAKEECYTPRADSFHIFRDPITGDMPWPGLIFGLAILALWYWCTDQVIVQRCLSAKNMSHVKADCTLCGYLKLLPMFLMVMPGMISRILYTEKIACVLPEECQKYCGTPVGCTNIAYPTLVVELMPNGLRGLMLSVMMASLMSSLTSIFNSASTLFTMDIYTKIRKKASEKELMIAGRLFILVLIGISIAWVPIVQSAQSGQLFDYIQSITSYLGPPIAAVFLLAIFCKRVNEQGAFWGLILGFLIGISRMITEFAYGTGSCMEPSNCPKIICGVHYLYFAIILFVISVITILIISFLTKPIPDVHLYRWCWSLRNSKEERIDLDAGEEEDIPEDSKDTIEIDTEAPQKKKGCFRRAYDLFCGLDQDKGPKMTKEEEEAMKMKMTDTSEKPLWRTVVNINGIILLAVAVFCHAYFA
Excerpt: C57B1/6J mice were obtained from The Jackson Laboratory (Bar Harbor, Me., USA). The mice were maintained at the Specific Pathogen Free mouse facility of the Centro de Estudios Científicos (CECS), Valdivia, Chile and prior to the experiments they had free access to water and food. Animals were killed by cervical dislocation according to local Institutional Animal Care and Use Committee (IACUC) regulations. The jejunum was isolated, open longitudinally along the mesenteric border and rinsed with phosphate buffered saline (PBS).
Two sections of jejunum per animal were mounted in Ussing Chambers and maintained in Ussing buffer (120 Mm NaCl, 25 mM NaHCO3, KH2PO4 3.3 mM, 0.8 mM K2HPO4, 1.2 mM MgCl2 and 1.2 mM CaCl2) supplemented with 10 mM D-glucose in the serosal side. […] The effect of delphinidin on sodium-coupled transport of glucose was determined by application of this molecule at a concentration of 50 μM in the mucosal side of the preparation. The transepithelial electrical potential difference (VM), defined as the potential side compared to serous mucus preparation was recorded continuously under current clamp configuration using a VCC MC2 amplifier (Physiological Instruments). The values of short circuit current (Isc) were calculated from experimental data using Ohm's law. The results are expressed as the intensity of the Isc (μA/cm^2). […]

T1 sequence (O14842 whole entry): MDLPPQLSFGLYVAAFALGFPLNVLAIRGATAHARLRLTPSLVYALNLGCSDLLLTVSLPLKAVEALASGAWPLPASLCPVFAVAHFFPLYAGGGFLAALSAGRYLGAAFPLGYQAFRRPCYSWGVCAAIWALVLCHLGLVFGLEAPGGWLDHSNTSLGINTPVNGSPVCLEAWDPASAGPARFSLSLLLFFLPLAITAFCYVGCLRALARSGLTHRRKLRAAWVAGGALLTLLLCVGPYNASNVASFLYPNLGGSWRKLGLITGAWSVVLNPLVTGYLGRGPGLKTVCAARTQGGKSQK

## Oc1cc(O)c2cc(O)c(-c3cc(O)c(O)c(O)c3)[o+]c2c1 [Delphinidin, 2-(3,4,5-trihydroxyphenyl)chromenylium-3,5,7-triol]
[1]
  expression of GLP-1 mRNA with respect to control: induces; also recorded: increased
[2]
  calcium fluxes (340/380 ratio) in HT-29 cells: induces calcium fluxes
[3]
  amount of GLP-1 compared to control cells: induced an increase
[4]; n=4
  decrease of sodium current (Isc) induced by 10 mM D-glucose / inhibition of glucose transport by jejunal mucosa: about 40%
[4]; n=4, listed as delphinidin
  decrease of sodium current (Isc) induced by 10 mM D-glucose / inhibition of glucose transport by jejunal mucosa: approximately 60%

— patent US20140128333A1, “Compounds, Compositions, and Methods for Decreasing Intestinal Glucose Uptake and Inducing Incretin Release” (MAQUI NEW LIFE S.A., priority 2012, published 2014)
